PubChem BioAssay (NCI)
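96-well plates; 48 h exposure; 5 concentrations. Endpoints by linear interpolation between flanking doses. Not reached: highest tested concentration assigned. GI50 = concentration required for 50% inhibition of growth. TGI marks complete inhibition of growth.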

Legend:
Experiment in all cases: NCI anticancer screen, dose series, 48 h
[1] = test system: 786-0 renal
[2] = test system: A498 renal
[3] = test system: EKVX NSCLC
[4] = test system: HCT-116 colon
[5] = test system: HCT-15 colon
[6] = test system: HS 578T breast
[7] = test system: KM12 colon
[8] = test system: MALME-3M melanoma
[9] = test system: MDA-MB-435
[10] = test system: MDA-N
[11] = test system: HL-60(TB) leukemia

C[As+](C)(c1ccc(Br)c([N+](=O)[O-])c1)c1ccc(Br)c([N+](=O)[O-])c1.O=[N+]([O-])O
TGI [1]: > 100 µM
TGI [2]: > 100 µM
TGI [3]: > 100 µM
TGI [4]: > 100 µM
TGI [5]: > 100 µM
TGI [6]: > 100 µM
TGI [7]: > 100 µM
TGI [8]: 34.1 µM
TGI [9]: > 100 µM
TGI [10]: > 100 µM

C=C(C)[C@H]1CC23C(=O)[C@@](C)(C[C@H]2C1(C)C)C(=O)C(C(=O)C(C)C)=C3O
TGI [1]: 35 µM
TGI [3]: 28.8 µM
TGI [5]: 33.1 µM
TGI [11]: 41.6 µM
TGI [6]: 58.1 µM
TGI [7]: 41.1 µM
TGI [8]: 28.6 µM
TGI [9]: 31.3 µM
TGI [10]: 35.7 µM

O=C1c2cc3c(cc2-c2c1c1ccc(Cl)cc1c(=O)n2CCCn1ccnc1)OCO3
GI50 [2]: 0.025 µM
GI50 [3]: 0.117 µM
TGI [3]: > 100 µM
GI50 [4]: < 0.01 µM
TGI [4]: 11 µM
GI50 [5]: 0.0431 µM
TGI [5]: > 100 µM
GI50 [11]: < 0.01 µM
TGI [11]: 1.93 µM
GI50 [6]: 1.54 µM
TGI [6]: > 100 µM
GI50 [8]: 0.0647 µM
TGI [8]: > 100 µM

COc1ccc([C@]23CCC4(OCC(C)(C)CO4)[C@H]4CON(O[C@H](O[C@@H]5CCCCC5C(C)(C)c5ccccc5)C2)[C@@H]43)cc1OC (stereo not given in full)
TGI [1]: > 100 µM
TGI [2]: > 100 µM
TGI [3]: > 100 µM
TGI [4]: > 100 µM
TGI [5]: > 100 µM
TGI [11]: 44.4 µM
TGI [7]: > 100 µM
TGI [8]: > 100 µM
TGI [9]: > 100 µM
TGI [10]: > 100 µM

CCOC(=O)[C@@H](Cc1ccc(CCl)cc1)NC(C)=O
TGI [1]: 40.4 µM
TGI [3]: 54.9 µM
TGI [4]: > 100 µM
TGI [5]: 94.1 µM
TGI [11]: 70.7 µM
TGI [6]: 60.8 µM
TGI [7]: 40.5 µM
TGI [8]: 37.7 µM
TGI [9]: 48.7 µM
TGI [10]: 40.2 µM

O=C1CSC(c2c[nH]c3ccccc23)N1c1ccc(Cl)cc1Cl (stereo not given)
TGI [1]: > 100 µM
TGI [3]: > 100 µM
TGI [4]: > 100 µM
TGI [5]: > 100 µM
TGI [11]: > 100 µM
TGI [7]: > 100 µM
TGI [10]: > 100 µM

CC(C)(C)c1ccnc(N=C2N=C(Nc3cc(C(C)(C)C)ccn3)c3ccccc32)c1
TGI [1]: 43.9 µM
TGI [2]: 53.4 µM
TGI [3]: > 100 µM
TGI [4]: 30.8 µM
TGI [5]: > 100 µM
TGI [11]: > 100 µM
TGI [7]: > 100 µM
TGI [8]: 63.7 µM

CC(C)(C)N=NC(C)(C)N=C=O
TGI [1]: > 100 µM
TGI [2]: > 100 µM
TGI [3]: > 100 µM
TGI [4]: > 100 µM
TGI [5]: > 100 µM
TGI [11]: > 100 µM
TGI [7]: > 100 µM
TGI [8]: > 100 µM

C=C1[C@@H]2CCC3[C@]4(C)C(CC[C@@]5(C)C(=O)O[C@H](O)[C@@H]45)[C@H](O)[C@]3(C2)[C@H]1OC1OC(CO)C(O)C(O)C1O (stereo not given in full)
TGI [1]: > 50 µM
TGI [2]: > 50 µM
TGI [3]: > 50 µM
TGI [4]: > 50 µM
TGI [5]: > 50 µM
TGI [11]: > 50 µM
TGI [6]: > 50 µM
TGI [7]: > 50 µM
TGI [8]: > 50 µM
TGI [10]: > 50 µM

CC(C)(C)/C(O)=C\c1nc2cc(F)c(F)cc2[nH]c1=O
TGI [1]: > 100 µM
TGI [2]: > 100 µM
TGI [3]: > 100 µM
TGI [4]: > 100 µM
TGI [5]: > 100 µM
TGI [11]: > 100 µM
TGI [6]: > 100 µM
TGI [7]: > 100 µM
TGI [9]: > 100 µM

C=C1C[C@@H]2O[C@H]3[C@H]4[C@@H](C[C@@H](C)[C@@H](OC(C)=O)[C@H]42)[C@@H](C)CO[C@@]3(C)[C@H](OC(=O)CCCCCCC)CC1=O
TGI [1]: 29.1 µM
TGI [2]: 32.5 µM
TGI [3]: 32.9 µM
TGI [4]: 32 µM
TGI [5]: 28.9 µM
TGI [6]: 39.7 µM
TGI [7]: 26.2 µM
TGI [9]: 30.8 µM
TGI [10]: 31 µM

CCOC(=O)C(NC(=O)c1cccc(Cl)c1)(Nc1cccc(C)c1)C(F)(F)F (stereo not given)
TGI [1]: 47 µM
TGI [3]: 63.1 µM
TGI [4]: 33.4 µM
TGI [5]: 31.2 µM
TGI [11]: > 100 µM
TGI [6]: 49.4 µM
TGI [7]: 30.1 µM
TGI [8]: 30.4 µM
TGI [9]: 43.8 µM
TGI [10]: 38.8 µM

Cc1cccc2c1CC(Cc1ccccc1C(=O)O)C2=O (stereo not given)
TGI [1]: > 100 µM
TGI [3]: > 100 µM
TGI [4]: > 100 µM
TGI [5]: > 100 µM
TGI [11]: > 100 µM
TGI [6]: > 100 µM
TGI [7]: > 100 µM
TGI [8]: > 100 µM
TGI [9]: > 100 µM
TGI [10]: > 100 µM

COc1cc(/C=N/N=C(\N)NO)c([N+](=O)[O-])cc1OC
TGI [1]: > 100 µM
TGI [2]: > 100 µM
TGI [3]: > 100 µM
TGI [4]: 75.1 µM
TGI [5]: > 100 µM
TGI [11]: 56 µM
TGI [7]: > 100 µM
TGI [8]: > 100 µM

CC(=O)Oc1ccc2c(-c3ccccc3)c(Oc3ccc(Cl)cc3)c(=O)oc2c1
TGI [1]: 30 µM
TGI [2]: 30.8 µM
TGI [3]: 29 µM
TGI [4]: 28 µM
TGI [5]: 10 µM
TGI [11]: > 100 µM
TGI [6]: 43.8 µM
TGI [7]: 27.5 µM
TGI [8]: 28.9 µM

CC(=N/NC(=S)N(C)C)/C(=N\NC(=S)N(C)C)c1ccccc1
TGI [1]: 4.04 µM
TGI [2]: 3.12 µM
TGI [3]: 3.56 µM
TGI [4]: 9.77 µM
TGI [5]: 4.36 µM
TGI [6]: 6.26 µM
TGI [7]: 4.44 µM
TGI [8]: 3.5 µM
TGI [9]: 3.56 µM
TGI [10]: 8.58 µM

CCOC(=O)c1c(SCc2cc(=O)[nH]c(=O)[nH]2)n(-c2ccccc2)c(=S)n(-c2ccccc2)c1=O
TGI [1]: > 100 µM
TGI [2]: > 100 µM
TGI [3]: > 100 µM
TGI [4]: > 100 µM
TGI [5]: > 100 µM
TGI [7]: > 100 µM
TGI [8]: > 100 µM
TGI [9]: > 100 µM
TGI [10]: > 100 µM

O=C1Nc2cc(F)ccc2C1=O
TGI [1]: > 100 µM
TGI [2]: > 100 µM
TGI [3]: > 100 µM
TGI [5]: > 100 µM
TGI [11]: > 100 µM
TGI [7]: > 100 µM
TGI [8]: > 100 µM

CCCCN(CCCC)CC(C(C)=O)C(c1ccccc1)c1c(O)c2ccccc2oc1=O (stereo not given)
TGI [1]: > 100 µM
TGI [3]: > 100 µM
TGI [4]: > 100 µM
TGI [5]: > 100 µM
TGI [11]: > 100 µM
TGI [7]: > 100 µM
TGI [8]: > 100 µM

COc1cc2c(cc1OCc1ccccc1)NC(=O)[C@@H]1CCCN1C2=O
TGI [1]: > 100 µM
TGI [2]: > 100 µM
TGI [3]: > 100 µM
TGI [4]: > 100 µM
TGI [5]: > 100 µM
TGI [6]: > 100 µM
TGI [7]: > 100 µM
TGI [8]: > 100 µM
TGI [9]: > 100 µM
TGI [10]: > 100 µM

CNC(=O)CN(CC(=O)O)C(=O)NC
TGI [1]: > 100 µM
TGI [2]: > 100 µM
TGI [3]: > 100 µM
TGI [5]: > 100 µM
TGI [11]: > 100 µM
TGI [7]: > 100 µM
TGI [8]: > 100 µM

COc1ccc(C2C=C(c3ccc(C)cc3)N(c3ccc(OC)cc3[N+](=O)[O-])C3C(=O)OC(=O)C23)c(OC)c1 (stereo not given)
TGI [1]: > 100 µM
TGI [2]: > 100 µM
TGI [3]: > 100 µM
TGI [4]: > 100 µM
TGI [5]: > 100 µM
TGI [11]: > 100 µM
TGI [6]: 57.6 µM
TGI [7]: 22.7 µM
TGI [8]: 38.5 µM
TGI [9]: > 100 µM
